Data: patent publication US12077503B2, “Substituted cyclic amides and their use as herbicides” (FMC CORPORATION, priority 2015, dated 2024)

Assays:
Type in all cases: in vivo
[1] = test system: Kochia (Kochia scoparia); experiment: Test A postemergence; conditions: Bassia scoparia, post-emergence, 240 h, postemergence; for pest or weed control at 125 g/ha: 125 g ai/ha, visual injury vs untreated controls after approx. 10 d, 0 = no effect, 100 = complete control, read-out: Kochia plant response rating (0 to 100 scale); for pest or weed control at 500 g/ha: 500 g ai/ha, 0 to 100 scale, 0 is no effect, 100 is complete control, read-out: Kochia plant response rating
Procedure, shortened: (§1)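 Ratings of 0 (no effect) to 100 (complete control) come from visual comparison with untreated controls roughly 10 d after treatment. Test chemicals, formulated in a non-phytotoxic solvent mixture with surfactant, were applied either as a preemergence directed soil spray on seeded soil or postemergence to one- to two-leaf plants 2 to 10 cm tall.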

[2] = test system: corn (Zea mays); experiment: Test A postemergence; conditions: Zea mays, post-emergence, 240 h, postemergence; for plant injury at 125 g/ha: 125 g ai/ha, visual injury vs untreated controls after approx. 10 d, 0 = no effect, 100 = complete control, read-out: Corn plant response rating (0 to 100 scale); for plant injury at 500 g/ha: 500 g ai/ha, 0 to 100 scale, 0 is no effect, 100 is complete control, read-out: Corn plant response rating
Procedure, shortened: as §1

[3] = test system: blackgrass (Alopecurus myosuroides); experiment: Test A postemergence; conditions: Alopecurus myosuroides, post-emergence, 240 h, postemergence; for pest or weed control at 125 g/ha: 125 g ai/ha, visual injury vs untreated controls after approx. 10 d, 0 = no effect, 100 = complete control, read-out: Blackgrass plant response rating (0 to 100 scale); for pest or weed control at 500 g/ha: 500 g ai/ha, 0 to 100 scale, 0 is no effect, 100 is complete control, read-out: Blackgrass plant response rating
Procedure, shortened: as §1

[4] = test system: Galium (catchweed bedstraw, Galium aparine); experiment: Test A postemergence; conditions: Galium, post-emergence, 240 h, postemergence; for pest or weed control at 125 g/ha: 125 g ai/ha, visual injury vs untreated controls after approx. 10 d, 0 = no effect, 100 = complete control, read-out: Galium plant response rating (0 to 100 scale); for pest or weed control at 500 g/ha: 500 g ai/ha, 0 to 100 scale, 0 is no effect, 100 is complete control, read-out: Galium plant response rating
Procedure, shortened: as §1

[5] = test system: ryegrass, Italian (Italian ryegrass, Lolium multiflorum); experiment: Test A postemergence; conditions: Lolium multiflorum, post-emergence, 240 h, postemergence; for pest or weed control at 125 g/ha: 125 g ai/ha, visual injury vs untreated controls after approx. 10 d, 0 = no effect, 100 = complete control, read-out: Ryegrass, Italian plant response rating (0 to 100 scale); for pest or weed control at 500 g/ha: 500 g ai/ha, 0 to 100 scale, 0 is no effect, 100 is complete control, read-out: Ryegrass, Italian plant response rating
Procedure, shortened: as §1

[6] = test system: wheat (Triticum aestivum); experiment: Test A postemergence; conditions: Triticum aestivum, post-emergence, 240 h, postemergence; for plant injury at 125 g/ha: 125 g ai/ha, visual injury vs untreated controls after approx. 10 d, 0 = no effect, 100 = complete control, read-out: Wheat plant response rating (0 to 100 scale); for plant injury at 500 g/ha: 500 g ai/ha, 0 to 100 scale, 0 is no effect, 100 is complete control, read-out: Wheat plant response rating
Procedure, shortened: as §1

[7] = test system: ragweed (common ragweed, Ambrosia elatior); experiment: Test A postemergence; conditions: Ambrosia artemisiifolia, post-emergence, 240 h, postemergence; for pest or weed control at 125 g/ha: 125 g ai/ha, visual injury vs untreated controls after approx. 10 d, 0 = no effect, 100 = complete control, read-out: Ragweed plant response rating (0 to 100 scale); for pest or weed control at 500 g/ha: 500 g ai/ha, 0 to 100 scale, 0 is no effect, 100 is complete control, read-out: Ragweed plant response rating
Procedure, shortened: as §1

[8] = test system: pigweed (Amaranthus retroflexus); experiment: Test A postemergence; conditions: Amaranthus retroflexus, post-emergence, 240 h, postemergence; for pest or weed control at 125 g/ha: 125 g ai/ha, visual injury vs untreated controls after approx. 10 d, 0 = no effect, 100 = complete control, read-out: Pigweed plant response rating (0 to 100 scale); for pest or weed control at 500 g/ha: 500 g ai/ha, 0 to 100 scale, 0 is no effect, 100 is complete control, read-out: Pigweed plant response rating
Procedure, shortened: as §1

[9] = test system: giant foxtail (Setaria faberii); experiment: Test A postemergence; conditions: Setaria faberi, post-emergence, 240 h, postemergence; for pest or weed control at 125 g/ha: 125 g ai/ha, visual injury vs untreated controls after approx. 10 d, 0 = no effect, 100 = complete control, read-out: Foxtail, Giant plant response rating (0 to 100 scale); for pest or weed control at 500 g/ha: 500 g ai/ha, 0 to 100 scale, 0 is no effect, 100 is complete control, read-out: Foxtail, Giant plant response rating
Procedure, shortened: as §1

[10] = test system: ducksalad (Heteranthera limosa); experiment: Test B flooded paddy test; conditions: Heteranthera limosa, 250 g ai/ha, Flood; 0 to 100 scale where 0 is no effect and 100 is complete control; read-out: Ducksalad plant response rating
Procedure, shortened: (§2)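 Percent control, visually estimated after 13–15 d in the greenhouse on a 0–100 basis, compares treated pots with untreated ones; compound was put into paddy water 3 cm above the soil when plants had two leaves.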

[11] = test system: rice (Oryra sativa); experiment: Test B flooded paddy test; conditions: Oryza sativa, 250 g ai/ha, Flood; 0 to 100 scale where 0 is no effect and 100 is complete control; read-out: Rice plant response rating
Procedure, shortened: as §2

[12] = test system: sedge, umbrella (small-flower umbrella sedge, Cyperus difformis); experiment: Test B flooded paddy test; conditions: Cyperus difformis, 250 g ai/ha, Flood; 0 to 100 scale where 0 is no effect and 100 is complete control; read-out: Sedge, Umbrella plant response rating
Procedure, shortened: as §2

[13] = test system: barnyardgrass (Echinochloa crus-galli); experiment: Test B flooded paddy test; conditions: Echinochloa crus-galli, 250 g ai/ha, Flood; 0 to 100 scale where 0 is no effect and 100 is complete control; read-out: Barnyardgrass plant response rating
Procedure, shortened: as §2

[14] = test system: pigweed (Amaranthus retroflexus); experiment: Test A preemergence; conditions: Amaranthus retroflexus, pre-emergence, 240 h, preemergence, 0 to 100 scale where 0 is no effect and 100 is complete control, read-out: Pigweed plant response rating; for pest or weed control at 125 g/ha: 125 g ai/ha, visual injury rating, approximately 10 d; for pest or weed control at 500 g/ha: 500 g ai/ha

SMILES | pest or weed control at 125 g/ha [1] [%] | pest or weed control at 500 g/ha [1] [%] | plant injury at 125 g/ha [2] [%] | plant injury at 500 g/ha [2] [%] | pest or weed control at 125 g/ha [3] [%] | pest or weed control at 500 g/ha [3] [%] | pest or weed control at 125 g/ha [4] [%] | pest or weed control at 500 g/ha [4] [%] | pest or weed control at 125 g/ha [5] [%] | pest or weed control at 500 g/ha [5] [%] | plant injury at 125 g/ha [6] [%] | plant injury at 500 g/ha [6] [%] | pest or weed control at 125 g/ha [7] [%] | pest or weed control at 500 g/ha [7] [%] | pest or weed control at 125 g/ha [8] [%] | pest or weed control at 500 g/ha [8] [%] | pest or weed control at 125 g/ha [9] [%] | pest or weed control at 500 g/ha [9] [%] | pest or weed control at 250 g/ha [10] [%] | pest or weed control at 250 g/ha [11] [%] | also measured
Cc1c(F)cccc1NC(=O)[C@H]1C(=O)N(C)C[C@@H]1c1ccc(C(F)(F)F)nc1 [Compound 1197] | 70 | 80 | 80 | 90 | 50 | 50 | 60 | 60 | 30 | 60 | 50 | 60 | 50 | 60 | 50 | 70 | 90 | 90 | 100 | 0 | pest or weed control at 250 g/ha [12]: 0%; pest or weed control at 250 g/ha [13]: 70%; pest or weed control at 125 g/ha [14]: 80%; pest or weed control at 500 g/ha [14]: 80%
COc1cc(C(F)(F)F)ccc1[C@H]1CNC(=O)[C@@H]1C(=O)Nc1ccccc1F [Compound 1202] | 30 | 40 | 20 | 30 | 0 | 40 | 0 | 40 | 0 | 0 | 0 | 50 | 0 | 20 | 0 | 20 | 70 | 90 | 100 | 0 | pest or weed control at 250 g/ha [12]: 0%; pest or weed control at 250 g/ha [13]: 0%; pest or weed control at 125 g/ha [14]: 0%; pest or weed control at 500 g/ha [14]: 0%
COc1cc([C@H]2CN(C)C(=O)[C@@H]2C(=O)Nc2cccc(F)c2F)cc(OC)c1OC [Compound 1210] | 0 | 0 | 0 | 50 | 0 | 50 | 0 | 0 | 30 | 60 | 0 | 60 | 0 | 0 | 0 | 0 | 90 | 90 | 30 | 20 | pest or weed control at 250 g/ha [12]: 0%; pest or weed control at 250 g/ha [13]: 50%; pest or weed control at 125 g/ha [14]: 0%; pest or weed control at 500 g/ha [14]: 0%
COc1ccc([C@H]2CN(C)C(=O)[C@@H]2C(=O)Nc2cccc(F)c2F)c(OC)c1 [Compound 1209] | 0 | 50 | 0 | 0 | 0 | 30 | 0 | 30 | 0 | 20 | 0 | 20 | 0 | 0 | 0 | 0 | 80 | 90 | 50 | 0 | pest or weed control at 250 g/ha [12]: 0%; pest or weed control at 250 g/ha [13]: 0%; pest or weed control at 125 g/ha [14]: 0%; pest or weed control at 500 g/ha [14]: 0%
